Reference: patent publication US20180207228A1, “PEPTIDE COMBINATIONS AND USES THEREOF FOR TREATING GRASS ALLERGY” (ALK-Abelló A/S, priority 2015, published 2018)
Entries after “also recorded” stand apart in the source; their conditions may differ. Like-named read-outs stand apart in the source and are kept apart here. Where no end group is shown, it is not given here.

Columns and labels:
[1] = tested on: grass allergic donor derived T cell lines (TCL-02 DK-2); experiment: Cross-reactivity of homologue peptides, proliferation on TCL02-DK2 (Study XR1); type: cell-based, human; details: 2 μg/ml, TCL02-DK2, 21 donors
Method: To measure the experimental cross-reactivity the proliferation assay of Example 3 was carried out on 21 grass allergic donors (TCL02-DK2). […] Cross-reactivity to Phleum pratense peptides with either close (Lolium perenne (Lol p)) or distant (Phalaris aquatica (Pha a), Cynodon dactylon (Cyn d)) species was experimentally investigated.
For analysing the cross-reactivity data, it was investigated if a donor responds to both native and homologue peptide, XY correlation plots were made where the donor responses to native peptides were plotted versus the donor responses to homologues. […] If less than five donors were responding to the parent peptides, then the data was considered to be in-conclusive, and were thus labelled with “-”. For some of the peptides the analysis was further supported by performing a Spearman r-Non Parametric test (data not shown).
Further the magnitude of T cell response from a parent peptide as defined herein and homologue response were plotted in a XY plot by using GraphPad Prism 6.
To measure the experimental cross-reactivity, the proliferation assay of Example 3 was carried out on 21 grass pollen allergic donors (TCL02-DK2, Study XR1) and 20 grass pollen allergic donors (TCL03−DK1+DK2, Study XR2). […] In Study XR1, Cross-reactivity to Phleum pratense peptides with either close (Lolium perenne-Lol p) or distant ([…]-Pha a, Cynodon dactylon-Cyn d) species was experimentally investigated. In Study XR1, 67 homologue peptides corresponding to 41 native Phleum pratense peptides were investigated together with the 41 Phleum pratense peptides at a concentration of 2 μg/ml. Similarly, study XR2 was carried out on 20 grass pollen allergic donors where donor derived TCL-03 lines were used to investigate Phleum pratense cross-reactivity to Poa pratensis (Poa p), Dactylis glomerata (Dac g), Festuca pratensis (Fes p), Paspalum notatum (Pas n), Sorghum halepense (Sor h), Lolium perenne (Lol p), Phalaris aquatica (Pha a) and Cynodon dactylon (Cyn d).

[2] = tested on: grass pollen allergic donor derived TCL-03 lines; experiment: Extended cross-reactivity study, proliferation on TCL03 DK1+DK2 (Study XR2), scoring; type: cell-based, human; details: study XR2; for Cross-reactivity score, Dac g: homologue from Dac g; for Cross-reactivity score, Dac g / Cross-reactivity score, Fes p / Cross-reactivity score, Lol p / Cross-reactivity score, Pha a / Cross-reactivity score, Poa p / Cross-reactivity score, Cyn d / Cross-reactivity score, Pas n / Cross-reactivity score, Sor h: score 0 to 7; for Cross-reactivity score, Fes p: homologue from Fes p; for Cross-reactivity score, Lol p: homologue from Lol p; for Cross-reactivity score, Pha a: homologue from Pha a; for Cross-reactivity score, Poa p: homologue from Poa p; for Cross-reactivity sum: scores of all species added; for Cross-reactivity/species: sum divided by the number of species measured; for Cross-reactivity score, Cyn d: homologue from Cyn d; for Cross-reactivity score, Pas n: homologue from Pas n; for Cross-reactivity score, Sor h: homologue from Sor h
[3] = Extended solubility and short term stability study (visual, U-HPLC recovery, DLS, 90LS, UV-VIS, sum of scores); details: for solubility: pH 4.5
Method: For that purpose, the peptides were provided as acetate salts (produced by Innovagen® at a >10 mg scale of manufacturing). To take into account batch-to-batch variations, some peptides were tested from other batches of the manufacturer Innovagen®, as well as from another manufacturer (Almac) and from in-house production. Solubility experiments were performed on peptide in solution in concentrations ranging from 0.5 mg/mL to 3 mg/mL (dry matter)—with the following solvents: • Water • Acetate buffer, pH 4.5 (25 mM sodium acetate containing 250 mM D-Mannitol) • Phosphate buffer, pH 7.0 (25 mM sodium phosphate containing 250 mM D-Mannitol) • Glycine buffer, pH 8.5 (25 mM glycine containing 250 mM D-Mannitol)
The solubility of the peptides was initially investigated by visual inspection and U-HPLC recovery. Visual inspection included assessment of turbidity and presence of particles/aggregates of each peptide solution before and after centrifugation as well as visual inspection of pelleted material. The visual inspection were reported as “clear solution”, “very small precipitation only visible with a magnifier”, “precipitation visible/turbid solution” or “more precipitation/turbid solution”. Filtration of peptide solutions were conducted using syringe based filters containing a polyethersulfone (PES) membrane chemistry and a pore size of 0.2 μm. The amount of the peptide in the supernatant of a filtered sample was determined using U-HPLC with reverse phase chromatography and recovery were determined as described in Example 5.
Peptide solutions were investigated at a time point of 1 hour after production, but were also repeated at later time point (e.g. 24. 48 or 96 hours) to investigate the stability of the peptides.
Peptide solutions were investigated to determine the presence of turbidity/particles/aggregates by use of optical density (OD) and change in UV-VIS absorbance at a wavelength of 320 nm, of the filtrate. […] In addition or as an alternative, the amount of the peptide in the supernatant of a filtered sample was determined using U-HPLC as described above, with the exception that the recovery was determined by dividing the peak area of the filtered sample in relation to the peak area in the original solution prior to filtration. See also Example 5 for further details regarding UV-VIS, and recovery measured by U-HPLC.
The peptides were scored in relation to the outcome of the above mentioned tests: For each peptide in a given buffer and at a given concentration, a sum of test scores was calculated and the sum used to rank the peptides according to solubility: • 1. […] DLS peak 1 number 3 nm gave a score of 1, 3-10 nm gave a score of 2, 10-100 nm gave a score of 3, >100 nm gave a score of 4. • 5. 90LS at 400 nm: Intensity <450 gave a score of 1, <800 gave a score of 2, >800 gave a score of 3. • 6. UV-VIS change in absorbance at 320 nm within 24 hours: 0.01 gave a score of 1, ≤0.05 gave a score of 2, 0.0.2 gave a score of 3 and >0.2 gave a score of 4.

[4] = Bio-stability in 25% human serum (T½, degradation pattern by UHPLC and MS); type: in vitro ADME
Method: The supernatant was analyzed by UHPLC-UV/VIS and the peak-height/peak-area of the original peptide was determined at each time point. T½ of the original peptide was estimated by plotting Ln (peak-area) as a function of time. […] Therefore, the degradation pattern of each peptide was additionally studied. Extra peaks compared to the peak of the original peptide in the chromatogram were notified as potential degradation products. To assess the degradation pattern of each peptide and identify degradation products, the test samples were also investigated by mass spectroscopy (MS). Some peptides, for example, may be prone to cleavage by endopeptidases resulting in short peptide fragments unfit for binding to the HLA binding site, whereas other peptides may be more prone to cleavage by exopeptidases which may cleave one or more amino acid residues from the N or C-terminal end of the peptide resulting in a conserved HLA binding. […] Therefore, it is important to look at both the MS data and functional data to estimate the extent and effect of the degradation.

[5] = tested on: grass pollen allergic donor derived T cell lines; experiment: Dose response titration in T cell proliferation assay; type: cell-based, human; details: single peptides, FIG. 21
Method: The dose-response relationship was tested by measuring the percentage of donor response (i.e. the percentage of donor coverage) in concentrations of 2.0, 0.1, 0.005 and 0.00025 μg/ml for the peptide combinations and in concentrations of 2.0, 0.2, 0.02 and 0.002 μg/ml for single peptides. The donor response was determined using T cell proliferation data as described in Example 3.
Relative magnitude value for a peptide or a peptide combination was calculated as percentage of highest T cell response to an allergen or a mix, by the same donor. In this way, allergen or peptide combination with highest magnitude of T cell response gets a value of 100 and T cell response magnitude of remaining peptides/peptide combinations are normalized or calculated relative to 100, for example Relative magnitude=100*(T cell response magnitude of peptide or combination/Highest T cell response in a donor). Relative magnitude were calculated mainly on Phl p 1. For donors non reactive to Phl p 1, Phl p 5 was used as reference
The donors were selected by seeking to maximize the HLA class II diversity in the donor cohort.
For peptide combinations, two set-ups were used:
A) Concentrations of 2.0, 0.1, 0.005 and 0.00025 μg/ml were tested on a set of T cell lines derived from 9 grass pollen allergic donors (same experiment as the data shown in FIG. 7b.).
B) Concentrations of 2.0, 0.066, 0.0022 and 0.00007 μg/ml were used on a set of T cell lines derived from 18 grass pollen allergic donors (same set as the donors used for testing of single peptides as described above).
Relative magnitude value for a peptide or a peptide combination was calculated as percentage of highest T cell response to an allergen or a mix, by the same donor. In this way, allergen or peptide combination with highest magnitude of T cell response gets a value of 100 and T cell response magnitude of remaining peptides/peptide combinations are normalized or calculated relative to 100, for example Relative magnitude=100*(T cell response magnitude of peptide or combination/Highest T cell response in a donor). […]

Substance | experimental cross-reactivity [1] | Cross-reactivity score, Dac g [2] | Cross-reactivity score, Fes p [2] | Cross-reactivity score, Lol p [2] | Cross-reactivity score, Pha a [2] | Cross-reactivity score, Poa p [2] | Cross-reactivity sum [2] | Cross-reactivity/species [2] | solubility in aqueous solutions and short-term stability [3] | solubility [3] | also measured
VATLSEALRIIAGTLEVHAV-OH [compound 67] | showed cross-reactivity |  |  |  |  |  |  |  |  |  | 
AYESYKFIPALEAAVKQAYA-OH [peptide 285] |  | 6 | 6 | 6 | 6 | 7 | 31 | 6.2 |  |  | solubility by ranking scheme based on a sum of scores ([3]; 3 mg/ml, buffers tested): good solubility; solubility in aqueous solutions and short-term stability ([3]; pH in the range of 4.5 to 8.5): sufficiently soluble; <−3aa (%) ([4]; degradation details at 60 min): 0%; Sum full length or −1aa to −3aa ([4]; degradation details at 60 min): 100%; −1aa to −3aa (%) ([4]; degradation details at 60 min): 34%; half-life ([4]; male, 37° C.): 1.37 h; remaining at 1 h ([4]; male, degradation details at 60 min, read-out: Full length (%)): 66%
TDDNEEPIAPYHFDLSGHAF-OH [peptide 204] | showed cross-reactivity; also recorded: good cross-reactivity | 7 | 7 | 7 | 7 | 1.5 | 34 | 4.25 | sufficiently soluble | acceptable solubility | Cross-reactivity score, Cyn d [2]: 1.5; Cross-reactivity score, Pas n [2]: 1; Cross-reactivity score, Sor h [2]: 2; solubility in all the test samples (concentrations and pH tested), all solubility tests [3]: good solubility
DKYRTFVATFGAASNKAFAE-OH [peptide 231] | showed cross-reactivity |  |  |  |  |  |  |  | sufficiently soluble | acceptable solubility | 
WGAIWRIDTPDKLTGPFTVR-OH [peptide 211] |  | 5 | 4 | 4 | 7 | 3 | 25 | 3.12 | sufficiently soluble | acceptable solubility | Cross-reactivity score, Cyn d [2]: 0.5; Cross-reactivity score, Pas n [2]: 1; Cross-reactivity score, Sor h [2]: 0.5
STGGAYESYKFIPALEAAVK-OH [compound 71] | showed cross-reactivity; also recorded: very good cross-reactivity | 5 | 5 | 5 | 5 | 4 | 24 | 4.8 | sufficiently soluble | acceptable solubility | average relative magnitude calculated over all donors [5]: high; solubility in all the test samples (concentrations and pH tested), all solubility tests [3]: good solubility
PANDKFTVFEAAFNNAIKAS-OH [compound 70] | showed cross-reactivity; also recorded: good cross reactivity |  |  |  |  |  |  |  |  |  | 
